The values that follow come from patent US20140057978A1, “NOVEL USE OF BENZOFURANYLSULFONATES” (priority 2011, published 2014).

For experiment [1], the system named is severe contusive SCI in Lewis rats. The experiment is described as follows: BBB open field locomotor rating scale after severe spinal cord contusion injury. In kind it is in vivo. To be noted: rat, oral. How it is done:
Oral treatment with a benzofuranylsulfonate after severe spinal cord contusion injury in the rat.
Thirteen week-old female Lewis rats (Charles River, Sulzfeld Germany) were housed under a 12:12 h dark/light regime and allowed free access to water and food. After one week of habituation the animals underwent general anesthesia with a mixture of isoflurane and air (induction: 5% isoflurane, maintenance: 2.2% isofluorane). A Th10 laminectomy was performed without rupturing the dura and a severe contusive SCI (25 gcm NYU/MASCIS II impactor) (Gruner, 1992) was induced. After suturing muscle and skin, a subcutaneous (s.c.) injection of 5 ml of Ringers Lactate was given. Bladders were emptied manually 2 times a day until spontaneous voiding returned (usually within 1 week). The lesion severity was verified by the impact velocity and contusion depth of the impactor rod. Animals with an impact velocity error >5% were excluded from further analysis. After injury, individual rats were randomly assigned into a treatment group. The following groups were used: […]
The BBB open field locomotor rating scale: The BBB locomotor rating scale was used to assess general locomotor performance (Basso et al., 1995). The score was assessed before injury and at 1, 3, 5, 7, 14, 21, 35, 42, 49, 56 and 63 days post operation (dpo) by 2 blinded observers.

Experiment [2] has as its system embryonic DRG (Dorsal Root Ganglion) explants. The experiment is described as follows: Axonal growth in embryonic DRG explants. Format: cell-based, rat. To be noted: 22 hours in vitro. How it is done:
(§1) In vitro experiments with a benzofuranylsulfonate to improve axonal growth and Schwann cell expansion in embryonic DRG (Dorsal Root Ganglion) explants of rats.
(§2) Outgrowth studies with Methanesulfonic acid 2-(2,4-dichloro-benzoyl)-3-ureido-benzofuran-6-yl ester or the vehicle were performed on embryonic neural tissue. DRGs of thoracic, lumbar, and sacral levels were prepared from Wistar rat embryos E18-20 and processed in ice cold 0.6% glucose in PBS. Harvested DRGs were freed from attaching nerve fibres, dissected, and transferred onto PDL- and laminin-coated glass coverlips. To avoid cluster formation, a maximum of two DRG explants were transferred onto a single glass coverslip. Following an initial attachment phase, the pre-incubation medium was replaced by fully supplemented growth medium spiked with the test item (Methanesulfonic acid 2-(2,4-dichloro-benzoyl)-3-ureido-benzofuran-6-yl ester groups 2 and 3) or vehicle (DMF, group 1) and incubated at 37° C./10% CO2 for additional 22 hours in vitro. Following 22 hours in vitro, the DRG explants were fluorescently labelled and axonal growth and Schwann cell expansion were quantitatively assessed.
(§3) Group 1: Fully supplemented growth medium with 0.1% vehicle. Group 2: Fully supplemented growth medium with 0.1% vehicle and Methanesulfonic acid 2-(2,4-dichloro-benzoyl)-3-ureido-benzofuran-6-yl ester at a final concentration of 0.1 μM. Group 3: Fully supplemented growth medium with 0.1% vehicle and Methanesulfonic acid 2-(2,4-dichloro-benzoyl)-3-ureido-benzofuran-6-yl ester at a final concentration of 1 μM.
Morphometric data are presented as the mean values and standard deviations of the axonal growth area in μm^2.

Experiment [3] has as its system Schwann cells of embryonic DRG explants. The experiment is described as follows: Schwann cell expansion in embryonic DRG explants. Format: cell-based, rat. To be noted: for Schwann cell expansion (numbers of Schwann cells outside the DRG explant core): 22 hours in vitro, versus vehicle. As for the experimental part: as §1, §2, §3
Data are presented as the mean values and standard deviations of the numbers of Schwann cells outside the DRG explant core.

SMILES strings stand for the structures.

Regarding `CS(=O)(=O)Oc1ccc2c(NC(N)=O)c(C(=O)c3ccc(Cl)cc3Cl)oc2c1` [methanesulfonic acid 2-(2,4-dichloro-benzoyl)-3-ureido-benzofuran-6-yl ester], in experiment [1] (10 mg in vehicle, vehicle animals 7.8), the “BBB score at steady state” value came to 8.8. The “BBB performance compared to vehicle controls at the end of the experiment” value in experiment [1] (10 mg, DPO 56, Students T-Test p=0.01) is listed as “significantly better”. In addition, the “growth area of outgrowing axons, as compared to vehicle-treated cultures” value in experiment [2] (0.1 μM) and in experiment [2] (1 μM) was “significant increase” each time. Besides, in experiment [2] (1 μM, versus vehicle), the “elevation of axonal growth areas (fold)” value is listed as “nearly five fold”. The “Schwann cell expansion (numbers of Schwann cells outside the DRG explant core)” value in experiment [3] (0.1 μM) and in experiment [3] (1 μM) was “significant increase” throughout. Moreover, the “increase of Schwann cell numbers (fold)” value in experiment [3] (treated cultures versus vehicle-treated cultures, highest at 0.1 μM) is reported as “nearly fivefold”.
